Laboratory results published in patent publication US20080045535A1, “Prokineticin 2 receptor antagonists” (priority 2005, published 2008).
Several values for one entry are separate records, joined by “and”; a condition that tells them apart may be missing. Identical values can stand only once.

Target: T1, HEK 293 GPR73 (prokineticin 1 receptor) expressing cells (Homo sapiens, UniProt Q8TCW9)
T1 construct: expressed in transfected cells; host or cells: HEK 293
Test: PK1 functional assay: screening for PK1 antagonists on the FLIPR (calcium fluorescence)
Format: cell-based
Conditions: HEK 293 GPR73 cells; for inhibition at 10 µM: HEK293, compound at 10 μM, read-out: Ca^2+ Mobilization % Inh @10 μM; for inhibition at 10 µM / Ca^2+ Mobilization % Inh @10 μM: multiple values = repeat tests; for IC50: PK1 ligand at EC50, multiple values = repeat tests, read-out: Ca^2+ Mobilization IC50; for Ca^2+ Mobilization % Inh @10 μM: compound at 10 μM
Protocol: At a time of 24 h prior to running the assay, in cell culture media (DMEM containing high Glucose and L-glutamine, 10% FBS, 1% Pen/Streptomycin, 1% Sodium Pyruvate, 20 mM HEPES, Zeocin 200 mg/L), 100 μL of 1.3*10^6/ml HEK 293 GPR73 (prokineticin 1 receptor) expressing cells were plated in a 96 well poly-d-lysine coated plate (Costar), and incubated at 37 C and 5% CO2. On the day in which the assay was run, the media was removed and 200 μL of 5× Calcium Plus Dye (Molecular Devices) which was previously resuspended with 200 mL of assay buffer [HBSS w/Ca^2+ and Mg^2+ w/o phenol red, 20 mM HEPES, 0.1% BSA, 10 mL probenecid (710 mg probenecid in 5 mL of 1N NaOH, to which was then added 5 mL HBSS containing 20 mM HEPES)] was added to each well of the 96-well plate. The plate was incubated at 37 C and 5% CO2 for 30 min in dark. The plate was removed and allowed to reach RT for 15 min in the dark. The assay was then run on the FLIPR. […] Baseline is described as the amount of relative fluorescence read when buffer alone is added to cells. Baseline was subtracted from all wells. Percent of control was calculated as follows:
(Baseline subtracted well value is divided by baseline subtracted max value)*100.
Percent inhibition is 100 minus the percent of control value.
IC50 values were calculated using GraphPad Prism.
Table 2 includes data generated from the PK1 functional assay described in Example 2.

T1 sequence (Q8TCW9 whole entry): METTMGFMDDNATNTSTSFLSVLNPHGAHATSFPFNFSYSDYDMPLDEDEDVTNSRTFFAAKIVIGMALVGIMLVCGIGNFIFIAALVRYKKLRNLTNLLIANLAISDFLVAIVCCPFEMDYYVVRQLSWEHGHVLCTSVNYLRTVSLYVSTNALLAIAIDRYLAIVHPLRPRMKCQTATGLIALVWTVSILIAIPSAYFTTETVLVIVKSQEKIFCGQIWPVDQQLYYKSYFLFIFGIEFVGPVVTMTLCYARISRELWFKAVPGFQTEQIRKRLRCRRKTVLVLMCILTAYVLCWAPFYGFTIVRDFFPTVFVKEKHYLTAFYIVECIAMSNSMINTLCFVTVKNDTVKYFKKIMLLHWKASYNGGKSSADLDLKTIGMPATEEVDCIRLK

inhibition at 10 µM | IC50 | Ca^2+ Mobilization % Inh @10 μM (10 µM) | Ca^2+ Mobilization % Inh @10 μM | SMILES
98% | 61 nM | – | – | COc1ccc(Cn2c(N[C@@H]3CCCC[C@H]3NC(=N)N)nc(=O)n(Cc3ccc(Cl)cc3)c2=O)cc1 [Cpd 56]
51% | 8210 nM | – | – | N=C(N)NCCNc1nc(=O)n(Cc2ccc(Cl)c(Cl)c2)c(=O)n1Cc1cccc(OC(F)F)c1 [Cpd 57]
– | 16 nM | 102% and 99% and 98% | – | COc1ccc(Cn2c(NCCN(C(=N)N)C(C)C)nc(=O)n(Cc3ccc(Cl)c(Cl)c3)c2=O)cc1 [Cpd 58, N-{2-[5-(3,4-Dichloro-benzyl)-1-(4-methoxy-benzyl)-4,6-dioxo-1,4,5,6-tetrahydro-[1,3,5]triazin-2-ylamino]-ethyl}-N-isopropyl-guanidine]
99% | 50 nM and 35 nM | 100% | – | CCN(CCNc1nc(=O)n(Cc2ccc(Cl)c(Cl)c2)c(=O)n1Cc1ccc(OC)cc1)C(=N)N [Cpd 59]
100% | 54 nM | – | – | COc1ccc(Cn2c(NCCN3CCNC3=N)nc(=O)n(Cc3ccc(Cl)c(Cl)c3)c2=O)cc1 [Cpd 60, 3-(3,4-Dichloro-benzyl)-6-[2-(2-imino-imidazolidin-1-yl)-ethylamino]-1-(4-methoxy-benzyl)-1H-[1,3,5]triazine-2,4-dione]
102% | 45 nM | – | – | CCCCNC(=N)NCCNc1nc(=O)n(Cc2ccc(Cl)c(Cl)c2)c(=O)n1Cc1ccc(OC)cc1 [Cpd 61]
98% | 59 nM | – | – | COc1ccc(Cn2c(NCCNC(=N)NC3CCCCC3)nc(=O)n(Cc3ccc(Cl)c(Cl)c3)c2=O)cc1 [Cpd 62]
101% | 120 nM | – | – | COc1ccc(Cn2c(NCCNC(=N)NCc3ccccc3)nc(=O)n(Cc3ccc(Cl)c(Cl)c3)c2=O)cc1 [Cpd 63]
100% | 72 nM | – | – | COc1ccc(Cn2c(NCCNC(=N)NCC3CCCO3)nc(=O)n(Cc3ccc(Cl)c(Cl)c3)c2=O)cc1 (centres unmarked) [Cpd 64]
– | 485 nM | – | 88% | COc1ccc(Cn2c(NCCNC(=N)NCCc3ccccc3)nc(=O)n(Cc3ccc(Cl)c(Cl)c3)c2=O)cc1 [Cpd 65]
99% | 23 nM | – | – | COc1ccc(Cn2c(NCCNC(=N)NCc3ccco3)nc(=O)n(Cc3ccc(Cl)c(Cl)c3)c2=O)cc1 [Cpd 66]
99% | 18 nM | – | – | COCCNC(=N)NCCNc1nc(=O)n(Cc2ccc(Cl)c(Cl)c2)c(=O)n1Cc1ccc(OC)cc1 [Cpd 67]
84% | 1210 nM | – | – | COc1ccc(Cn2c(NCCCNC(=N)N)nc(=O)n(Cc3ccc(Cl)c(Cl)c3)c2=O)cc1 [Cpd 68]
101% | 9 nM and 7 nM | – | 101, 101% | C=CCNC(=N)NCCNc1nc(=O)n(Cc2ccc(Cl)c(Cl)c2)c(=O)n1Cc1ccc(OC)cc1 [Cpd 70]
100% | 12 nM and 7 nM | 99% | – | COc1ccc(Cn2c(NCCNC(=N)Nc3ccccc3)nc(=O)n(Cc3ccc(Cl)c(Cl)c3)c2=O)cc1 [Cpd 71]
100% | 64 nM | – | – | COc1ccc(Cn2c(NCCNC(=N)Nc3ccc(OC)cc3)nc(=O)n(Cc3ccc(Cl)c(Cl)c3)c2=O)cc1 [Cpd 72]
100% | 39 nM | – | – | COc1ccc(Cn2c(NCCNC(=N)Nc3ccc(Cl)cc3)nc(=O)n(Cc3ccc(Cl)c(Cl)c3)c2=O)cc1 [Cpd 73]
100% | 138 nM | – | – | COc1ccc(Cn2c(NCCNC(=N)Nc3ccc(C(F)(F)F)cc3)nc(=O)n(Cc3ccc(Cl)c(Cl)c3)c2=O)cc1 [Cpd 74]
101% | 36 nM | – | – | COc1ccc(Cn2c(NCCNC(=N)Nc3cccnc3)nc(=O)n(Cc3ccc(Cl)c(Cl)c3)c2=O)cc1 [Cpd 75]

inhibition at 10 µM | IC50 | Ca^2+ Mobilization % Inh @10 μM (10 µM) | Ca^2+ Mobilization % Inh @10 μM | SMILES
93% | 230 nM | – | – | COc1ccc(Cn2c(NCCNC(=N)Nc3ccc(C(C)=O)cc3)nc(=O)n(Cc3ccc(Cl)c(Cl)c3)c2=O)cc1 [Cpd 76]
81% | 789 nM | – | – | COc1ccc(Cn2c(NCCNC(=N)N)nc(=O)n(Cc3ccoc3)c2=O)cc1 [Cpd 77]
89% | 300 nM | – | – | COc1ccc(Cn2c(NCCNC(=N)N)nc(=O)n(Cc3cccs3)c2=O)cc1 [Cpd 78]
101% | 71 nM | – | – | COc1ccc(Cn2c(NCCNC(=N)N)nc(=O)n(C(C)c3ccc(OC)cc3)c2=O)cc1 (centres unmarked) [Cpd 79]
100% | 71 nM | – | – | COc1ccc(Cn2c(NCCNC(=N)N)nc(=O)n(Cc3ccc(OC(F)F)cc3)c2=O)cc1 [Cpd 80]
84% | 452 nM | – | – | COc1ccc(Cn2c(NCCNC(=N)N)cc(=O)n(Cc3ccccc3)c2=O)cc1 [Cpd 81, N-{2-[1-Benzyl-3-(4-methoxy-benzyl)-2,6-dioxo-1,2,3,6-tetrahydro-pyrimidin-4-ylamino]-ethyl}-guanidine]
84% | 498 nM | – | – | C=CCC(c1ccc(OC)cc1)n1c(=O)nc(NCCNC(=N)N)n(Cc2ccc(OC)cc2)c1=O (centres unmarked) [Cpd 82]
80% | 988 nM | – | – | C=CCC(c1ccc(Cl)cc1)n1c(=O)nc(NCCNC(=N)N)n(Cc2ccc(OC)cc2)c1=O (centres unmarked) [Cpd 83]
99% | 42 nM | – | – | COc1ccc(Cn2c(NCCNC(=N)N)cc(=O)n(Cc3ccc(OC)cc3)c2=O)cc1 [Cpd 84, N-{2-[1,3-Bis-(4-methoxy-benzyl)-2,6-dioxo-1,2,3,6-tetrahydro-pyrimidin-4-ylamino]-ethyl}-guanidine]
96% | 51 nM | – | – | COc1ccc(Cn2c(=O)nc(NCCNC(=N)N)n(Cc3ccc(OC)nc3)c2=O)cc1 [Cpd 85]
61% | 3260 nM | – | – | COc1ccc(Cn2c(=O)nc(NCCNC(=N)N)n(CC3CCC(OC)CC3)c2=O)cc1 (centres unmarked) [Cpd 86]
38% | > 10000 nM | – | – | N=C(N)NCCNc1nc(=O)n(Cc2ccc(F)cc2)c(=O)n1Cc1ccc([N+](=O)[O-])cc1 [Cpd 87]
59% | 4740 nM | – | – | COc1ccc(Cn2c(NCCNC(=N)NCCN3CCOCC3)nc(=O)n(Cc3ccc(F)cc3)c2=O)cc1 [Cpd 88]
46% | 9070 nM | – | – | COc1ccc(Cn2c(NCCNC(=N)NCCCN3CCOCC3)nc(=O)n(Cc3ccc(F)cc3)c2=O)cc1 [Cpd 89]
– | 31 nM and 43 nM | 100% and 101% | – | COc1ccc(Cn2c(NCCN(C(=N)N)c3ccc(C#N)cc3)nc(=O)n(Cc3ccc(F)cc3)c2=O)cc1 [Cpd 90, N-(4-Cyano-phenyl)-N-{2-[5-(4-fluoro-benzyl)-1-(4-methoxy-benzyl)-4,6-dioxo-1,4,5,6-tetrahydro-[1,3,5]triazin-2-ylamino]-ethyl}-guanidine]
101% | 54 nM | – | – | COc1ccc(Cn2c(NCCNC(=N)Nc3ccc([N+](=O)[O-])cc3)nc(=O)n(Cc3ccc(F)cc3)c2=O)cc1 [Cpd 91]
97% | 40 nM | – | – | COc1ccc(Cn2c(NCCNC(=N)Nc3ccc4c(c3)OCO4)nc(=O)n(Cc3ccc(F)cc3)c2=O)cc1 [Cpd 92]
92% | 227 nM | – | – | COc1ccc(Cn2c(NCCNC(=N)NN)nc(=O)n(Cc3ccc(F)cc3)c2=O)cc1 [Cpd 93, N-{2-[5-(4-Fluoro-benzyl)-1-(4-methoxy-benzyl)-4,6-dioxo-1,4,5,6-tetrahydro-[1,3,5]triazin-2-ylamino]-ethyl}-AN-amino-guanidine]
